Test results from ChEMBL document CHEMBL1201862, “PubChem BioAssay data set” (2004).
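A five-concentration, 48-hour dose response in 96-well plates underlies each endpoint, interpolated linearly between surrounding concentrations. GI50 is the concentration that inhibits growth by half.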 Activity calls are given as the source filed them. Cut-off read from the data, not from the text of the source: active = GI50 up to about 1.1 µM and inactive = higher.

Legend:
Test in all cases: NCI tumour cell line growth inhibition, 48 h
EKVX = tested on: EKVX
OVCAR-4 = tested on: OVCAR-4
UACC-62 = tested on: UACC-62
HCT-116 = tested on: HCT-116
SK-MEL-5 = tested on: SK-MEL-5
SW-620 = tested on: SW-620
KM12 = tested on: KM12
K562 = tested on: K562
ACHN = tested on: ACHN
UACC-257 = tested on: UACC-257
OVCAR-8 = tested on: OVCAR-8
DMS-114 = tested on: DMS-114
OVCAR-5 = tested on: OVCAR-5
U-251 = tested on: U-251
TK-10 = tested on: TK-10
A549 = tested on: A549
SNB-19 = tested on: SNB-19
HT-29 = tested on: HT-29
786-0 = tested on: 786-0
M19-MEL = tested on: M19-MEL
SR = tested on: SR
SK-MEL-2 = tested on: SK-MEL-2
SF-268 = tested on: SF-268
RPMI-8226 = tested on: RPMI-8226
SN12C = tested on: SN12C
Malme-3M = tested on: Malme-3M
HOP-62 = tested on: HOP-62
IGROV-1 = tested on: IGROV-1
CAKI-1 = tested on: CAKI-1
DMS-273 = tested on: DMS-273
SK-MEL-28 = tested on: SK-MEL-28
SF-539 = tested on: SF-539
DLD-1 = tested on: DLD-1
SF-295 = tested on: SF-295
SNB-75 = tested on: SNB-75
COLO 205 = tested on: COLO 205
HOP-18 = tested on: HOP-18
LOX IMVI = tested on: LOX IMVI
SNB-78 = tested on: SNB-78
A498 = tested on: A498
KM-20L2 = tested on: KM-20L2
NCI-H23 = tested on: NCI-H23
OVCAR-3 = tested on: OVCAR-3
RXF 393 = tested on: RXF 393
HCT-15 = tested on: HCT-15
NCI-H460 = tested on: NCI-H460
HOP-92 = tested on: HOP-92
MOLT-4 = tested on: MOLT-4
LXFL 529 = tested on: LXFL 529
SK-OV-3 = tested on: SK-OV-3
HCC 2998 = tested on: HCC 2998
M14 = tested on: M14
NCI-H522 = tested on: NCI-H522
UO-31 = tested on: UO-31
NCI-H226 = tested on: NCI-H226
CCRF-CEM = tested on: CCRF-CEM
HL-60 = tested on: HL-60

## CC(C)c1cc(C(C)C)c(S(=O)(=O)NN)c(C(C)C)c1
EKVX
  GI50: > 100 µM (inactive)
OVCAR-4
  GI50: > 100 µM (inactive)
UACC-62
  GI50: > 100 µM (inactive)
HCT-116
  GI50: > 100 µM (inactive)
SK-MEL-5
  GI50: > 100 µM (inactive)
SW-620
  GI50: > 100 µM (inactive)
KM12
  GI50: > 100 µM (inactive)
K562
  GI50: > 100 µM (inactive)
ACHN
  GI50: > 100 µM (inactive)
UACC-257
  GI50: > 100 µM (inactive)
OVCAR-8
  GI50: > 100 µM (inactive)
DMS-114
  GI50: > 100 µM (inactive)
OVCAR-5
  GI50: > 100 µM (inactive)
U-251
  GI50: > 100 µM (inactive)
TK-10
  GI50: > 100 µM (inactive)
A549
  GI50: > 100 µM (inactive)
SNB-19
  GI50: > 100 µM (inactive)
HT-29
  GI50: > 100 µM (inactive)
786-0
  GI50: > 100 µM (inactive)
M19-MEL
  GI50: > 100 µM (inactive)
SR
  GI50: > 100 µM (inactive)
SK-MEL-2
  GI50: > 100 µM (inactive)
SF-268
  GI50: > 100 µM (inactive)
RPMI-8226
  GI50: > 100 µM (inactive)
SN12C
  GI50: > 100 µM (inactive)
Malme-3M
  GI50: > 100 µM (inactive)
HOP-62
  GI50: > 100 µM (inactive)
IGROV-1
  GI50: > 100 µM (inactive)
CAKI-1
  GI50: > 100 µM (inactive)
DMS-273
  GI50: > 100 µM (inactive)
SK-MEL-28
  GI50: > 100 µM (inactive)
SF-539
  GI50: > 100 µM (inactive)
DLD-1
  GI50: > 100 µM (inactive)
SF-295
  GI50: > 100 µM (inactive)
SNB-75
  GI50: > 100 µM (inactive)
COLO 205
  GI50: > 100 µM (inactive)
HOP-18
  GI50: > 100 µM (inactive)
LOX IMVI
  GI50: 42.1 µM (inactive)
SNB-78
  GI50: > 100 µM (inactive)
A498
  GI50: > 100 µM (inactive)
KM-20L2
  GI50: > 100 µM (inactive)
NCI-H23
  GI50: > 100 µM (inactive)
OVCAR-3
  GI50: > 100 µM (inactive)
RXF 393
  GI50: > 100 µM (inactive)
HCT-15
  GI50: > 100 µM
NCI-H460
  GI50: > 100 µM (inactive)
HOP-92
  GI50: > 100 µM (inactive)

## O=C(CN1C(=O)c2ccccc2C1=O)OC1C=CCCC1 (stereo unspecified)
EKVX
  GI50: > 100 µM (inactive)
OVCAR-4
  GI50: > 100 µM (inactive)
UACC-62
  GI50: > 100 µM (inactive)
MOLT-4
  GI50: > 100 µM (inactive)
HCT-116
  GI50: > 100 µM (inactive)
SK-MEL-5
  GI50: > 100 µM (inactive)
SW-620
  GI50: > 100 µM (inactive)
LXFL 529
  GI50: > 100 µM (inactive)
KM12
  GI50: > 100 µM (inactive)
K562
  GI50: > 100 µM (inactive)
ACHN
  GI50: > 100 µM (inactive)
UACC-257
  GI50: > 100 µM (inactive)
SK-OV-3
  GI50: > 100 µM (inactive)
OVCAR-8
  GI50: > 100 µM (inactive)
HCC 2998
  GI50: > 100 µM (inactive)
U-251
  GI50: > 100 µM (inactive)
TK-10
  GI50: > 100 µM (inactive)
M14
  GI50: > 100 µM (inactive)
A549
  GI50: > 100 µM (inactive)
SNB-19
  GI50: > 100 µM (inactive)
786-0
  GI50: > 100 µM (inactive)
M19-MEL
  GI50: > 100 µM (inactive)
SR
  GI50: > 100 µM (inactive)
SK-MEL-2
  GI50: > 100 µM (inactive)
SF-268
  GI50: > 100 µM (inactive)
RPMI-8226
  GI50: > 100 µM (inactive)
NCI-H522
  GI50: 72.8 µM (inactive)
SN12C
  GI50: > 100 µM (inactive)
Malme-3M
  GI50: > 100 µM (inactive)
HOP-62
  GI50: > 100 µM (inactive)
UO-31
  GI50: > 100 µM (inactive)
IGROV-1
  GI50: > 100 µM (inactive)
CAKI-1
  GI50: > 100 µM (inactive)
DMS-273
  GI50: > 100 µM (inactive)
SK-MEL-28
  GI50: > 100 µM (inactive)
SF-539
  GI50: > 100 µM (inactive)
DLD-1
  GI50: > 100 µM (inactive)
SNB-75
  GI50: > 100 µM (inactive)
COLO 205
  GI50: > 100 µM (inactive)
HOP-18
  GI50: > 100 µM (inactive)
SNB-78
  GI50: > 100 µM (inactive)
NCI-H226
  GI50: > 100 µM (inactive)
A498
  GI50: > 100 µM (inactive)
KM-20L2
  GI50: > 100 µM (inactive)
RXF 393
  GI50: > 100 µM (inactive)
HCT-15
  GI50: > 100 µM
CCRF-CEM
  GI50: > 100 µM (inactive)
NCI-H460
  GI50: > 100 µM (inactive)
HL-60
  GI50: > 100 µM (inactive)
